Like-named read-outs stand apart in the source and are kept apart here. Blank lines part the entries; values can stand above or below the molecule they belong to.
Key:
[1] = Solubility of the mono-hydrochloride salt in water and buffer solutions; type: physicochemical; settings: thermodynamic from solid; for solubility at 15 min: solid added until saturation
Protocol: In each case, a first estimation was performed by adding small amounts of solvents until dissolution of the solid (50 mg), followed by a second estimation performed through the addition of small amounts of solid to a determined quantity of solvent until saturation was reached (suspension observed after 15 min). This second estimation was undertaken twice for each solution.

[2] = Powder stability of the API on storage; type: physicochemical; settings: powder form of the API, FIG. 3
[3] = Stability in aqueous media at RT; type: physicochemical
Text: Regarding to the MS profile, most of the observed impurities concern a valproic moiety cleavage and/or valine moiety migration/cleavage. […] In agreement with earlier observation, a lower acidity medium will likely result in a higher ratio of valine hydrolysis.

CDA = CDA (Homo sapiens, UniProt P32320); settings: Bender et al. 2009; cited from earlier work
Sequence of CDA (P32320 whole entry, species assumed): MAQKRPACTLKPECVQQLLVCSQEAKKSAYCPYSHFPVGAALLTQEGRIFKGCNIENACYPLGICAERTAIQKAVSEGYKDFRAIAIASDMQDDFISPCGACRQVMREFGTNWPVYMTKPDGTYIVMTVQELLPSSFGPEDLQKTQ

Japanese patients = settings: phase I, 2013; cited from earlier work
[4] = result of first pass metabolism; Shipley et al. 1992; cited from earlier work
mice = settings: cited from earlier work

solubility ([1]; buffer solution pH 1.2, pH 1.2, simulated gastric fluid, Buffer pH 1.2, read-out: Mean solubility): 211 mg/mL
solubility at 15 min ([1]; buffer solution pH 1.2, pH 1.2, simulated gastric fluid, Buffer pH 1.2, read-out: Solubility, Estimation 2a): 217 mg/mL
solubility at 15 min ([1]; buffer solution pH 1.2, pH 1.2, simulated gastric fluid, Buffer pH 1.2, read-out: Solubility, Estimation 2b): 208 mg/mL
solubility ([1]; buffer solution pH 1.2, pH 1.2, simulated gastric fluid, Buffer pH 1.2, solvent added until dissolution of 50 mg solid, read-out: Solubility, Estimation 1): 207 mg/mL
solubility ([1]; buffer solution pH 4.5, pH 4.5, aqueous buffer, Buffer pH 4.5, read-out: Mean solubility): 227 mg/mL
solubility at 15 min ([1]; buffer solution pH 4.5, pH 4.5, aqueous buffer, Buffer pH 4.5, read-out: Solubility, Estimation 2a): 236 mg/mL
solubility at 15 min ([1]; buffer solution pH 4.5, pH 4.5, aqueous buffer, Buffer pH 4.5, read-out: Solubility, Estimation 2b): 233 mg/mL
solubility ([1]; buffer solution pH 4.5, pH 4.5, aqueous buffer, Buffer pH 4.5, solvent added until dissolution of 50 mg solid, read-out: Solubility, Estimation 1): 213 mg/mL
solubility ([1]; buffer solution pH 6.8, pH 6.8, aqueous buffer, Buffer pH 6.8, read-out: Mean solubility): 275 mg/mL
solubility at 15 min ([1]; buffer solution pH 6.8, pH 6.8, aqueous buffer, Buffer pH 6.8, read-out: Solubility, Estimation 2a): 302 mg/mL
solubility at 15 min ([1]; buffer solution pH 6.8, pH 6.8, aqueous buffer, Buffer pH 6.8, read-out: Solubility, Estimation 2b): 280 mg/mL
solubility ([1]; buffer solution pH 6.8, pH 6.8, aqueous buffer, Buffer pH 6.8, solvent added until dissolution of 50 mg solid, read-out: Solubility, Estimation 1): 241 mg/mL
solubility ([1]; water, Water, read-out: Mean solubility): 394 mg/mL
solubility at 15 min ([1]; water, Water, read-out: Solubility, Estimation 2a): 463 mg/mL
solubility at 15 min ([1]; water, Water, read-out: Solubility, Estimation 2b): 462 mg/mL
solubility ([1]; water, Water, solvent added until dissolution of 50 mg solid, read-out: Solubility, Estimation 1): 257 mg/mL
Powder stability, change on storage ([2]; 3 months' storage at 2-4° C.): no significant change
Powder stability, change on storage ([2]; 3 months' storage at RT): no significant change
Stability in aqueous media at RT ([3]; Water, 30 Min): 97.06%
Stability in aqueous media at RT ([3]; Water, 1 hour): 96.98%
Stability in aqueous media at RT ([3]; Water, 2 hours): 96.89%
Stability in aqueous media at RT ([3]; Water, 4 hours): 96.62%
Stability in aqueous media at RT ([3]; Water, 6 hours): 96.42%
Stability in aqueous media at RT ([3]; Water, 1 day): 94.45%
Stability in aqueous media at RT ([3]; Water, 2 days): 91.07%
Stability in aqueous media at RT ([3]; Water, 7 days): 77.12%
Stability in aqueous media at RT ([3]; Water, time 0 (API Powder)): 97.21%
Degradation of the API in aqueous media ([3]; aqueous media, RT, FIG. 4): significant short-term degradation
Stability in aqueous media at RT ([3]; pH 1.2, 30 Min): 97.03%
Stability in aqueous media at RT ([3]; pH 1.2, 1 hour): 96.83%
Stability in aqueous media at RT ([3]; pH 1.2, 2 hours): 96.42%
Stability in aqueous media at RT ([3]; pH 1.2, 4 hours): 95.71%
Stability in aqueous media at RT ([3]; pH 1.2, 6 hours): 95.14%
Stability in aqueous media at RT ([3]; pH 1.2, 1 day): 88.40%
Stability in aqueous media at RT ([3]; pH 1.2, 2 days): 80.05%
Stability in aqueous media at RT ([3]; pH 1.2, 7 days): 30.60%
Stability in aqueous media at RT ([3]; pH 1.2, time 0 (API Powder)): 97.21%
Stability in aqueous media at RT ([3]; pH 4.5, 30 Min): 96.45%
Stability in aqueous media at RT ([3]; pH 4.5, 1 hour): 96.35%
Stability in aqueous media at RT ([3]; pH 4.5, 2 hours): 96.24%
Stability in aqueous media at RT ([3]; pH 4.5, 4 hours): 95.46%
Stability in aqueous media at RT ([3]; pH 4.5, 6 hours): 94.87%
Stability in aqueous media at RT ([3]; pH 4.5, 1 day): 90.73%
Stability in aqueous media at RT ([3]; pH 4.5, 2 days): 84.24%
Stability in aqueous media at RT ([3]; pH 4.5, 7 days): 57.17%
Stability in aqueous media at RT ([3]; pH 4.5, time 0 (API Powder)): 97.21%
Stability in aqueous media at RT ([3]; pH 6.8, 30 Min): 91.08%
Stability in aqueous media at RT ([3]; pH 6.8, 1 hour): 87.32%
Stability in aqueous media at RT ([3]; pH 6.8, 2 hours): 80.70%
Stability in aqueous media at RT ([3]; pH 6.8, 4 hours): 65.65%
Stability in aqueous media at RT ([3]; pH 6.8, 6 hours): 57.40%
Stability in aqueous media at RT ([3]; pH 6.8, 1 day): 9.48%
Stability in aqueous media at RT ([3]; pH 6.8, 2 days): 7.48%
Stability in aqueous media at RT ([3]; pH 6.8, 7 days): 1.77%
Stability in aqueous media at RT ([3]; pH 6.8, time 0 (API Powder)): 97.21%
SMILES: CCCC(CCC)C(=O)Nc1ccn([C@@H]2O[C@H](CO)[C@@H](OC(=O)[C@@H](N)C(C)C)C2(F)F)c(=O)n1.Cl [LR-06-B.HCl, (2R,3R,5R)-4,4-difluoro-2-(hydroxymethyl)-5-(2-oxo-4-(2-propylpentanamido)-1,2-dihydropyrimidin-1-yl)oxolan-3-yl (2S)-2-amino-3-methylbutanoate hydrochloride]

SMILES: CCCC(CCC)C(=O)Nc1ccn([C@@H]2O[C@H](CO)[C@@H](O)C2(F)F)c(=O)n1 [LY2334737]
Degradation by CDA (CDA): significantly less prone to degradation by CDA
Hepatic toxicity (Japanese patients): unexpected hepatic toxicities

SMILES: Nc1ccn([C@@H]2O[C@H](CO)[C@@H](O)C2(F)F)c(=O)n1 [gemcitabine, Gemcitabine]
Oral bioavailability [4]: poor
Death or gastrointestinal toxicity after intravenous dosing (mice; comparable exposures via intravenous dosing): did not result in death or gastrointestinal toxicity
Intestinal lesions after single oral dose (mice; single oral (gavage) dose of 167, 333, or 500 mg/kg, Horton et al. 2004): moderate-to-marked loss of mucosal epithelium (atrophic enteropathy)

— patent US20250177429A1, “ORALLY ACTIVE PRODRUG OF GEMCITABINE” (Laevoroc Chemotherapy AG, priority 2022, published 2025)
